Legend:
FLT3-ITD = target: T1, FLT3-ITD (Homo sapiens, UniProt P36888); assay: FLT3-ITD biochemical kinase assay (AlphaScreen)
T1 construct: FLT3-ITD; Invitrogen #PV6190
T1 sequence (P36888 1-993): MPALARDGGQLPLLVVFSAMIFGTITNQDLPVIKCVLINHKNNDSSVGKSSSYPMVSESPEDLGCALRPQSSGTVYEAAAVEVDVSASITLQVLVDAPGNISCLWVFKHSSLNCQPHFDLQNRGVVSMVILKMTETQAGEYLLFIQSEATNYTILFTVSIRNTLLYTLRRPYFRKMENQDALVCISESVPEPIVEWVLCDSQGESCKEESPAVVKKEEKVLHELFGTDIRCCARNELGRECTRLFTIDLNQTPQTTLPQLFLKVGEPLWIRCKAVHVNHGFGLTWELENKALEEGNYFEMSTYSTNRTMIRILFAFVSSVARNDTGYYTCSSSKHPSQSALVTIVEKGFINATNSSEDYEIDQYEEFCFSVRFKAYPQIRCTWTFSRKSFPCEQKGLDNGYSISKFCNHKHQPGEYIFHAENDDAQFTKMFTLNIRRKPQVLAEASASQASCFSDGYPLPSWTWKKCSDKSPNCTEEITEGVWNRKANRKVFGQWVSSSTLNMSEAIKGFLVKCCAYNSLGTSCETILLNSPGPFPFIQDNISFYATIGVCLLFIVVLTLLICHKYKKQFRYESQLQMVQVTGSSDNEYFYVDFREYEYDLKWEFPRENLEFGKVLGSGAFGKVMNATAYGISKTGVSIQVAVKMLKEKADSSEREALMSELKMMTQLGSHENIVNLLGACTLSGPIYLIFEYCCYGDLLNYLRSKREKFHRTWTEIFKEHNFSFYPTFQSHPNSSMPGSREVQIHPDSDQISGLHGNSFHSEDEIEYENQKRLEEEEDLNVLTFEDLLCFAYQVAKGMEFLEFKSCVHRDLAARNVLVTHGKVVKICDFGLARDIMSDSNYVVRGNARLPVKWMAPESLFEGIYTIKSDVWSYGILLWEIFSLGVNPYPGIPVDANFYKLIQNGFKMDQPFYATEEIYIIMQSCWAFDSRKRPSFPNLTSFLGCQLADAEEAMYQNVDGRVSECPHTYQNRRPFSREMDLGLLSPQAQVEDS
Method in brief: (§1)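 Recombinant enzyme phosphorylated biotin-poly(Glu4-Tyr) peptide (30 nM final); ATP final 10 μM for FLT3-D835Y, 100 μM for FLT3-ITD. AlphaScreen read-out: streptavidin donor and anti-phosphotyrosine (PY20) acceptor beads, 20 and 60 min at room temperature; inhibition seen as drop in 580 nm proximity signal; IC50 determined.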

FLT3-D835Y = target: T2, FLT3-D835Y (Homo sapiens, UniProt P36888, D835Y); assay: FLT3-D835Y biochemical kinase assay (AlphaScreen)
T2 construct: purchased Invitrogen PV3967
T2 sequence (P36888 27-993 D835Y): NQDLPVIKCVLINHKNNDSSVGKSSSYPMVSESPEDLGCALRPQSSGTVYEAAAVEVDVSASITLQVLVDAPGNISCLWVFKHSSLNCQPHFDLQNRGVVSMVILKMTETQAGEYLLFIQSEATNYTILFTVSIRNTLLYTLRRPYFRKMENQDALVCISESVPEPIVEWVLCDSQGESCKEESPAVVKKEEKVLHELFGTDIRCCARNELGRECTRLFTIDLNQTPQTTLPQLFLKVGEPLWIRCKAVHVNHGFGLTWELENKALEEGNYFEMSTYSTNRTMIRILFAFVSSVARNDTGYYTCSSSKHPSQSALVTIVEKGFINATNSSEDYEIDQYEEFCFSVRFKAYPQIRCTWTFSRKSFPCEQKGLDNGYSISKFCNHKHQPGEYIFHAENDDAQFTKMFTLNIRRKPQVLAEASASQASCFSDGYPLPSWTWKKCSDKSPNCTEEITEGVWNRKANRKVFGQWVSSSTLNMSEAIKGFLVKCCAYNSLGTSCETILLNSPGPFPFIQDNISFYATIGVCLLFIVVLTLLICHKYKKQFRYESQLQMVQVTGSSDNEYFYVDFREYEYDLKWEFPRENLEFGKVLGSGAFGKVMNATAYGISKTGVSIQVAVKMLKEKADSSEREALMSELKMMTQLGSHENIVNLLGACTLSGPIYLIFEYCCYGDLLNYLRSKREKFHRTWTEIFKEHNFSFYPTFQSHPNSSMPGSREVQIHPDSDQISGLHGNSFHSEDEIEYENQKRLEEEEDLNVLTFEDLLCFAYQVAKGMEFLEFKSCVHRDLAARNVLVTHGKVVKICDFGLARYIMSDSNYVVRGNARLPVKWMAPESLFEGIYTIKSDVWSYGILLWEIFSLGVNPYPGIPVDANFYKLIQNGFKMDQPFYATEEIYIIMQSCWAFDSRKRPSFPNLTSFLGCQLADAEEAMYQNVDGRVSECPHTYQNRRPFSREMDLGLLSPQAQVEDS
Method in brief: as §1

IC50 (FLT3-ITD) [µM] | IC50 (FLT3-D835Y) [µM] | Compound
0.0001 to 1 | 0.0001 to 1 | CC(C)(C)n1cnc2ccc(-c3c[nH]c4nnc(Cl)cc34)cc21 [P-314, 5-(3-tert-butylbenzimidazol-5-yl)-3-chloro-7H-pyrrolo[2,3-c]pyridazine]
0.0001 to 1 | 0.0001 to 1 | CC(C)(C)n1cnc2ccc(-c3c[nH]c4ncc(-c5ccnc(N6CCCCC6)c5)nc34)cc21 [P-338, 7-(3-tert-butylbenzimidazol-5-yl)-2-[2-(1-piperidyl)-4-pyridyl]-5H-pyrrolo[2,3-b]pyrazine]
0.0001 to 1 | 0.0001 to 1 | Cc1cc(C#Cc2cnc3[nH]cc(-c4ccc5ncn(C(C)(C)C)c5c4)c3n2)cc(C)n1 [P-282, 7-(3-tert-butylbenzimidazol-5-yl)-2-[2-(2,6-dimethyl-4-pyridyl)ethynyl]-5H-pyrrolo[2,3-b]pyrazine]
0.0001 to 1 | 0.0001 to 1 | COc1cc(-c2cc3c(-c4ccc5ncn(C(C)(C)C)c5c4)c[nH]c3nn2)ccn1 [P-315, 5-(3-tert-butylbenzimidazol-5-yl)-3-(2-methoxy-4-pyridyl)-7H-pyrrolo[2,3-c]pyridazine]
0.0001 to 1 | 0.0001 to 1 | CCN1CCN(c2cccc(-c3cnc4[nH]cc(-c5ccc6ncn(C(C)(C)C)c6c5)c4n3)c2)CC1 [P-330, 7-(3-tert-butylbenzimidazol-5-yl)-2-[3-(4-ethylpiperazin-1-yl)phenyl]-5H-pyrrolo[2,3-b]pyrazine]
0.0001 to 1 | 0.0001 to 1 | COc1cc(-c2cnc3[nH]cc(-c4ccc5ncn(C6(C(F)(F)F)CC6)c5c4)c3n2)ccn1 [P-312, 2-(2-methoxy-4-pyridyl)-7-[3-[1-(trifluoromethyl)cyclopropyl]benzimidazol-5-yl]-5H-pyrrolo[2,3-b]pyrazine]
0.0001 to 1 | 0.0001 to 1 | CC(C)(C)n1cnc2ccc(-c3c[nH]c4ncc(-c5ccc(N6CCCCC6)nc5)nc34)cc21 [P-347, 7-(1-(tert-butyl)-1H-benzo[d]imidazol-6-yl)-2-(6-(piperidin-1-yl)pyridin-3-yl)-5H-pyrrolo[2,3-b]pyrazine]
0.0001 to 1 | 0.0001 to 1 | CC(C)(C)n1cnc2ccc(-c3n[nH]c4ncc(-c5ccnc(N6CCOCC6)c5)cc34)cc21 [P-297, 4-[4-[3-(3-tert-butylbenzimidazol-5-yl)-1H-pyrazolo[3,4-b]pyridin-5-yl]-2-pyridyl]morpholine]
0.0001 to 1 | 0.0001 to 1 | COc1cnc2[nH]cc(-c3ccc4ncn(C5CCC5)c4c3)c2c1 [P-061, 1-cyclobutyl-6-(5-methoxy-1H-pyrrolo[2,3-b]pyridin-3-yl)benzimidazole]
0.0001 to 1 | 0.0001 to 1 | CC(C)(C)n1cnc2ccc(-c3c[nH]c4ncc(-c5cccc(N6CCOCC6)c5)cc34)cc21 [P-316, 4-[3-[3-(3-tert-butylbenzimidazol-5-yl)-1H-pyrrolo[2,3-b]pyridin-5-yl]phenyl]morpholine]
0.0001 to 1 | 0.0001 to 1 | COc1cc(-c2cnc3[nH]cc(-c4ccc5ncn(C(C)(C)C)c5c4)c3c2)c(OC)nn1 [P-292, 1-tert-butyl-6-[5-(3,6-dimethoxypyridazin-4-yl)-1H-pyrrolo[2,3-b]pyridin-3-yl]benzimidazole]
0.0001 to 1 | 0.0001 to 1 | CC(C)(C)n1cnc2ccc(-c3c[nH]c4ncc(-c5cnc(C#N)nc5)nc34)cc21 [P-352, 5-[7-(3-tert-butylbenzimidazol-5-yl)-5H-pyrrolo[2,3-b]pyrazin-2-yl]pyrimidine-2-carbonitrile]
0.0001 to 1 | 0.0001 to 1 | CCN1CCN(c2ccc(-c3cnc4[nH]cc(-c5ccc6ncn(C7CCCNC7)c6c5)c4n3)cn2)CC1 (stereo not shown) [P-366, 2-[6-(4-ethylpiperazin-1-yl)-3-pyridyl]-7-[3-(3-piperidyl)benzimidazol-5-yl]-5H-pyrrolo[2,3-b]pyrazine]
0.0001 to 1 | 0.0001 to 1 | CC(C)(C)n1cnc2ccc(-c3c[nH]c4ncc(-c5ccc(N6CCOCC6)nc5)nc34)cc21 [P-326, 4-[5-[7-(3-tert-butylbenzimidazol-5-yl)-5H-pyrrolo[2,3-b]pyrazin-2-yl]-2-pyridyl]morpholine]
0.0001 to 1 | 0.0001 to 1 | CCN1CCN(c2cc(-c3cnc4[nH]cc(-c5ccc6ncn(C(C)(C)C)c6c5)c4n3)ccn2)CC1 [P-328, 7-(3-tert-butylbenzimidazol-5-yl)-2-[2-(4-ethylpiperazin-1-yl)-4-pyridyl]-5H-pyrrolo[2,3-b]pyrazine]
0.0001 to 1 | 0.0001 to 1 | c1cc(N2CCOCC2)ncc1-c1cnc2[nH]cc(-c3ccc4ncn(C5CCCNC5)c4c3)c2n1 (stereo not shown) [P-325, 4-[5-[7-[3-(3-piperidyl)benzimidazol-5-yl]-5H-pyrrolo[2,3-b]pyrazin-2-yl]-2-pyridyl]morpholine]
0.0001 to 1 | 0.0001 to 1 | c1cc(-c2cnc3[nH]cc(-c4ccc5ncn(C6CCCNC6)c5c4)c3n2)cc(N2CCCCC2)n1 (stereo not shown) [P-339, 7-[3-(3-piperidyl)benzimidazol-5-yl]-2-[2-(1-piperidyl)-4-pyridyl]-5H-pyrrolo[2,3-b]pyrazine]
0.0001 to 1 | 0.0001 to 1 | O=S1(=O)CCCN1c1cc(-c2cnc3[nH]cc(-c4ccc5ncn(C6CCCNC6)c5c4)c3c2)ccn1 (stereo not shown) [P-311, 2-[4-[3-[3-(3-piperidyl)benzimidazol-5-yl]-1H-pyrrolo[2,3-b]pyridin-5-yl]-2-pyridyl]-1,2-thiazolidine 1,1-dioxide]
 | 0.0001 to 1 | COc1cnc2[nH]cc(-c3ccc4ncn(C(C)(C)C)c4c3)c2c1 [P-074, 1-tert-butyl-6-(5-methoxy-1H-pyrrolo[2,3-b]pyridin-3-yl)benzimidazole]
0.0001 to 1 | 0.0001 to 1 | CC(C)(C)n1cnc2ccc(-c3c[nH]c4ncc(-c5ccc(N6CCOCC6)nc5)cc34)cc21 [P-322, 4-[5-[3-(3-tert-butylbenzimidazol-5-yl)-1H-pyrrolo[2,3-b]pyridin-5-yl]-2-pyridyl]morpholine]
0.0001 to 1 |  | COc1ncc(-c2cnc3[nH]cc(-c4ccc5ncn(C(C)(C)C)c5c4)c3n2)cc1C#N [P-405, 5-[7-(3-tert-butylbenzimidazol-5-yl)-5H-pyrrolo[2,3-b]pyrazin-2-yl]-2-methoxy-pyridine-3-carbonitrile]
1 to 10 |  | CC(C)(C)n1cnc2ccc(-c3c[nH]c4ncc(-c5cnc(F)c(F)c5)nc34)cc21 [P-390, 7-(3-tert-butylbenzimidazol-5-yl)-2-(5,6-difluoro-3-pyridyl)-5H-pyrrolo[2,3-b]pyrazine]
 | 0.0001 to 1 | COc1cnc2[nH]cc(-c3ccc4ncn(-c5ccccc5)c4c3)c2c1 [P-068, 5-methoxy-3-(3-phenylbenzimidazol-5-yl)-1H-pyrrolo[2,3-b]pyridine]
 | 0.0001 to 1 | CC(C)(C)n1cnc2ccc(-c3c[nH]c4ncc(-c5ccnc(C#N)c5)nc34)cc21 [P-301, 4-[7-(3-tert-butylbenzimidazol-5-yl)-5H-pyrrolo[2,3-b]pyrazin-2-yl]pyridine-2-carbonitrile]
